In the supplement of paper PMC10307832:

Columns and labels:
Test in all cases: relative viability (nuclei count vs DMSO), 5 days (fraction); higher = more cells survive
[1] = compound: CC(=O)Nc1cccc(-n2c(=O)n(C3CC3)c(=O)c3c(Nc4ccc(I)cc4F)n(C)c(=O)c(C)c32)c1 [Trametinib] + CC(C)C[C@H](NC(=O)[C@H](Cc1ccccc1)NC(=O)c1cnccn1)B(O)O [Bortezomib] (partner 0.002 µM)
In short: (§1)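 For relative viability, nuclei counts in treated wells were divided by those in vehicle wells. Lung cancer cell lines had been pin-tool dosed in 1536-well plates the day after seeding and cultured for 5 days, then fixed and stained in one step (final 0.05% Triton X-100, 1% formaldehyde, 1 ug/ml Hoechst) and imaged at 4×. Doses were one drug alone or a fixed anchor-drug dose plus five library-drug doses (not always all listed) in √10 steps, and values are duplicate-plate medians.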

[2] = compound: CN1C=C(C2=CC=CC=C21)/C=C\3/C4=C(C=CC=N4)NC3=O + Nc1ncn([C@H]2C[C@H](O)[C@@H](CO)O2)c(=O)n1 [Decitabine] (partner 2 µM)
In short: as §1

[3] = compound: CN1C=C(C2=CC=CC=C21)/C=C\3/C4=C(C=CC=N4)NC3=O + COc1cc2c(Oc3ccc(NC(=O)C4(C(=O)Nc5ccc(F)cc5)CC4)cc3F)ccnc2cc1OCCCN1CCOCC1 [Foretinib] (partner 0.25 µM)
In short: as §1

[4] = compound: CN1C=C(C2=CC=CC=C21)/C=C\3/C4=C(C=CC=N4)NC3=O + CCNC(=O)c1noc(-c2cc(C(C)C)c(O)cc2O)c1-c1ccc(CN2CCOCC2)cc1 [Luminespib] (partner 0.01 µM)
In short: as §1

| Cell Line | relative viability ([1]; first compound 0.0025 µM) | relative viability ([1]; first compound 0.007906 µM) | relative viability ([1]; first compound 0.025 µM) | relative viability ([1]; first compound 0.07906 µM) | relative viability ([1]; first compound 0.25 µM) | relative viability ([2]; first compound 0.02 µM) | relative viability ([2]; first compound 0.06325 µM) | relative viability ([2]; first compound 0.2 µM) | relative viability ([2]; first compound 0.6325 µM) | relative viability ([2]; first compound 2 µM) | relative viability ([3]; first compound 0.02 µM) | relative viability ([3]; first compound 0.06325 µM) | relative viability ([3]; first compound 0.2 µM) | relative viability ([3]; first compound 0.6325 µM) | relative viability ([3]; first compound 2 µM) | relative viability ([4]; first compound 0.02 µM) | relative viability ([4]; first compound 0.06325 µM) | relative viability ([4]; first compound 0.2 µM) | relative viability ([4]; first compound 0.6325 µM) | relative viability ([4]; first compound 2 µM) |
| --- | --- | --- | --- | --- | --- | --- | --- | --- | --- | --- | --- | --- | --- | --- | --- | --- | --- | --- | --- | --- |
| 201T | 1.08 | 1.01 | 0.942 | 1.05 | 0.801 | 0.857 | 0.891 | 0.859 | 0.885 | 0.917 | 1.27 | 1 | 0.983 | 0.773 | 0.713 | 1.01 | 1.06 | 1.12 | 1.03 | 1.15 |
| A549 |  |  |  |  |  | 0.332 | 0.207 | 0.133 | 0.225 | 0.324 | 1.03 | 0.97 | 1.04 | 1.13 | 1.16 |  |  |  |  |  |
| A-427 | 1.1 | 1.05 | 0.735 | 0.763 | 0.601 | 0.632 | 0.479 |  | 0.557 | 0.651 | 1.18 | 1.21 |  | 0.958 | 1.1 | 0.849 | 0.902 |  | 1.08 | 1.01 |
| ABC-1 | 0.301 | 0.299 | 0.255 | 0.251 | 0.235 | 1.3 | 0.941 | 0.829 | 0.909 | 1.15 | 0.929 | 1.08 | 1.16 | 1.13 | 1.13 |  | 0.531 |  | 0.678 | 0.801 |
| BEN | 0.76 | 0.725 |  | 0.531 | 0.657 | 0.691 | 0.634 | 0.513 | 0.623 | 0.781 | 0.66 | 0.742 |  | 0.483 | 0.484 | 0.286 | 0.394 |  | 0.357 | 0.281 |
| CAL-12T | 0.784 | 0.734 | 0.645 | 1.43 | 0.454 |  |  |  |  |  | 1.08 | 1.03 | 1.08 | 1.08 | 1.03 | 0.22 | 0.561 | 0.48 | 0.432 | 0.381 |
| COR-L23 | 0.982 | 1 | 1.02 | 0.935 | 0.309 | 0.446 | 0.372 | 0.403 | 0.408 | 0.435 | 1.11 | 1.04 | 0.92 | 1.1 | 1.08 | 0.623 | 0.632 | 0.702 | 0.699 | 0.789 |
| COR-L 105 | 0.748 | 0.612 | 0.389 | 0.315 | 0.335 | 0.633 | 0.745 | 0.63 | 0.68 | 0.64 | 1.09 | 0.993 | 0.834 | 0.957 | 0.952 | 0.634 | 0.616 | 0.625 | 0.804 | 0.85 |
| Calu-6 | 1.08 | 0.813 | 0.376 | 0.236 | 0.224 |  |  |  |  |  | 0.818 | 0.893 | 0.727 | 0.779 | 0.834 |  |  |  |  |  |
| ChaGo-K-1 | 1.12 | 0.871 | 1.05 | 0.713 | 0.476 | 0.519 | 0.515 | 0.5 | 0.534 | 0.476 | 0.921 | 0.911 | 0.828 | 0.861 | 0.918 | 0.54 | 0.56 | 0.522 | 0.482 | 0.59 |
| EBC-1 | 0.631 | 0.544 | 0.427 | 0.376 | 0.337 |  |  |  |  |  | 0.0992 | 0.108 | 0.0997 | 0.0962 | 0.0995 |  |  |  |  |  |
| EKVX | 0.797 | 0.628 | 0.6 | 0.373 | 0.331 | 0.291 |  |  | 0.303 | 0.301 | 0.877 | 0.842 | 0.806 | 0.662 | 0.773 | 0.79 | 0.784 | 0.821 | 0.865 | 0.868 |
| EMC-BAC-2 | 1.05 | 0.99 | 0.865 | 1 | 0.859 | 0.925 | 0.926 | 1.01 | 0.99 | 1.04 | 1.04 | 0.996 | 1.01 | 1.06 | 1.08 | 1.19 | 1.18 | 1.29 | 1.17 | 1.19 |
| EPLC-272H | 1.02 | 0.841 | 0.516 | 0.737 | 0.157 | 0.382 | 0.345 |  | 0.333 | 0.336 | 0.564 | 0.677 | 0.603 |  | 0.663 | 0.156 | 0.309 | 0.169 |  | 0.383 |
| H3255 | 0.814 | 0.769 | 0.597 | 0.42 | 0.344 | 0.796 |  | 0.57 | 0.563 | 0.491 | 1.26 | 0.954 | 0.72 | 0.742 | 0.899 | 1.03 | 1 | 0.786 | 0.86 | 0.77 |
| HARA | 1.09 | 1.06 | 0.983 | 0.745 | 0.0924 | 0.373 | 0.477 |  | 0.597 | 0.524 | 0.94 | 0.68 |  | 0.818 | 0.848 | 0.347 | 0.951 |  | 0.558 | 0.676 |
| HCC-15 | 0.946 | 0.62 | 0.731 | 0.492 | 0.203 | 0.562 | 0.566 | 0.656 | 0.579 | 0.814 | 0.947 | 0.935 | 1.03 | 1.01 | 0.998 | 0.172 | 0.344 | 0.303 | 0.353 | 0.36 |
| HCC-44 | 0.926 | 0.905 | 0.946 | 0.816 | 0.585 | 0.877 | 0.938 | 0.95 | 0.962 | 0.838 |  |  |  |  |  | 1.03 | 0.925 |  | 1.02 | 1.02 |
| HCC-78 | 0.399 | 0.404 | 0.4 | 0.395 | 0.332 | 0.557 | 0.588 | 0.652 | 0.614 | 0.65 | 0.545 | 0.554 |  | 0.509 | 0.552 |  |  |  |  |  |
